Measured values reported in ChEMBL document CHEMBL1671858, “Coprevalence of plasmid-mediated quinolone resistance determinants QepA, Qnr, and AAC(6')-Ib-cr among 16S rRNA methylase RmtB-producing Escherichia coli isolates from pigs” (2008).
Converted amounts (≈) assume the structure as drawn.

Columns and labels:
Assay type in all cases: functional
Escherichia coli [1] = test: Antimicrobial activity against Escherichia coli isolate CQ1 PFGE type U harboring qepA gene by agar dilution method
Escherichia coli [2] = test: Antimicrobial activity against Escherichia coli isolate CQ15 transconjugant harboring 16S rRNA methylase RmtB and qepA by agar dilution method relative to recipient strain
Escherichia coli [3] = test: Antimicrobial activity against Escherichia coli isolate CQ20 transconjugant harboring 16S rRNA methylase RmtB and qepA by agar dilution method relative to recipient strain
Escherichia coli [4] = test: Antimicrobial activity against Escherichia coli isolate GZ11 PFGE type E harboring qepA gene by agar dilution method
Escherichia coli [5] = test: Antimicrobial activity against Escherichia coli isolate GZ14 transconjugant harboring 16S rRNA methylase RmtB and qepA by agar dilution method relative to recipient strain
Escherichia coli [6] = test: Antimicrobial activity against Escherichia coli isolate GZ4 transconjugant harboring 16S rRNA methylase RmtB and qepA by agar dilution method relative to recipient strain
Escherichia coli [7] = test: Antimicrobial activity against Escherichia coli isolate CQ5 transconjugant harboring 16S rRNA methylase RmtB and qepA by agar dilution method relative to recipient strain
Escherichia coli [8] = test: Antimicrobial activity against Escherichia coli isolate CQ6 PFGE type Q harboring qepA gene by agar dilution method
Escherichia coli [9] = test: Antimicrobial activity against Escherichia coli isolate CQ12 transconjugant harboring 16S rRNA methylase RmtB and qepA, qnrS2, aac(6')-Ib-cr gene by agar dilution method relative to recipient strain
Escherichia coli [10] = test: Antimicrobial activity against Escherichia coli isolate CQ13 PFGE type K harboring qepA gene by agar dilution method
Escherichia coli [11] = test: Antimicrobial activity against Escherichia coli isolate CQ13 transconjugant harboring 16S rRNA methylase RmtB and qnrS1 by agar dilution method relative to recipient strain
Escherichia coli [12] = test: Antimicrobial activity against Escherichia coli isolate GZ2 PFGE type O harboring qepA gene by agar dilution method
Escherichia coli [13] = test: Antimicrobial activity against Escherichia coli isolate GZ14 PFGE type F harboring qepA gene by agar dilution method
Escherichia coli [14] = test: Antimicrobial activity against Escherichia coli isolate GZ13 PFGE type F harboring qepA gene by agar dilution method
Escherichia coli [15] = test: Antimicrobial activity against Escherichia coli isolate CQ26 PFGE type K harboring qepA gene by agar dilution method
Escherichia coli [16] = test: Antimicrobial activity against Escherichia coli isolate CQ12 PFGE type Q harboring qepA gene by agar dilution method
Escherichia coli [17] = test: Antimicrobial activity against Escherichia coli isolate GZ3 PFGE type A1 harboring qepA gene by agar dilution method
Escherichia coli [18] = test: Antimicrobial activity against Escherichia coli isolate CQ7 transconjugant harboring 16S rRNA methylase RmtB and qepA, qnrS2, aac(6')-Ib-cr gene by agar dilution method relative to recipient strain
Escherichia coli [19] = test: Antimicrobial activity against Escherichia coli isolate CQ19 transconjugant harboring 16S rRNA methylase RmtB and qepA, aac(6')-Ib-cr gene by agar dilution method relative to recipient strain

Structure (SMILES): CCN1CCN(c2cc3c(cc2F)c(=O)c(C(=O)O)cn3C2CC2)CC1 [ENROFLOXACIN]
- MIC (Escherichia coli [1]): 0.25 µg/mL (≈ 0.696 µM)
- fold change (FC) (Escherichia coli [2]): 16
- fold change (FC) (Escherichia coli [3]): 4
- MIC (Escherichia coli [4]): 128 µg/mL (≈ 356 µM)
- fold change (FC) (Escherichia coli [5]): 8
- fold change (FC) (Escherichia coli [6]): 4
- fold change (FC) (Escherichia coli [7]): 2
- MIC (Escherichia coli [8]): 2 µg/mL (≈ 5.56 µM)
- fold change (FC) (Escherichia coli [9]): 4
- MIC (Escherichia coli [10]): 0.5 µg/mL (≈ 1.39 µM)
- fold change (FC) (Escherichia coli [11]): 8
- MIC (Escherichia coli [12]): 2 µg/mL (≈ 5.56 µM)
- MIC (Escherichia coli [13]): 16 µg/mL (≈ 44.5 µM)
- MIC (Escherichia coli [14]): 8 µg/mL (≈ 22.3 µM)
- MIC (Escherichia coli [15]): 0.5 µg/mL (≈ 1.39 µM)
- MIC (Escherichia coli [16]): 2 µg/mL (≈ 5.56 µM)
- MIC (Escherichia coli [17]): 64 µg/mL (≈ 178 µM)
- fold change (FC) (Escherichia coli [18]): 2
- fold change (FC) (Escherichia coli [19]): 4
